Patent US8709406B2, “Prevention and treatment of oxidative stress disorders by gluthathione and phase II detoxification enzymes” (Brassica Foundation for ChemoProtection Research, priority 2001, dated 2014)
Where two headings read alike, the source gives them in different places.

Legend:
Assay type in all cases: cell-based, human
[1] = tested on: ARPE-19 cells; assay: Oxidant cytotoxicity (MTT viability, median effect analysis) and protection by 24 h sulforaphane pretreatment; conditions: for EC50: Homo sapiens
Description: (§1) All experiments were performed in 96-well microliter plates. ARPE-19 and HaCaT cells were seeded at 10,000 cells per well and grown for 24 h before addition of sulforaphane, whereas L1210 cells (5,000 cells/well) were not incubated before sulforaphane treatment. Solutions of sulforaphane (5 mM) in dimethyl sulfoxide were diluted with the cognate culture medium to provide final inducer concentrations of 0.16-5.0 μM. The final DMSO concentrations were 0.1% by volume.
Tert-Butyl hydroperoxide (1 M) and 4-hydroxynonenal (25 mM) were dissolved in DMSO and diluted 1000-fold with serum-free medium before addition of serial dilutions to the microtiter plate wells. The final concentrations of DMSO were therefore less than 0.1% (by vol.). Menadione sodium bisulfite (0.5 M) and SIN-1 (0.5 M) were dissolved and added in PBS. ARPE-19 cells were exposed to menadione for 2 h and to tert-butyl hydroperoxide for 16 h, washed with PBS, and cell viability was determined by the MIT test. ARPE-19 cells were exposed to peroxynitrite for 2 h and 4-hydroxynonenal for 4 h, and the cells were then incubated in serum-free media for 22 and 20 h, respectively, washed with PBS, and cell viability was determined. The additional incubation periods were required for peroxynitrite and 4-hydroxynonenal to evoke maximal cytotoxicity.
(§2) Cell viability was determined by spectroscopic measurement of the reduction of MTT (Carmichael, J., DeGraff, W. G., Gazdar, A. F., Minna, J. D. & Mitchell, J. B. (1987) Cancer Res. 47, 936-942). The culture media were discarded after the designated incubation periods, the cells were washed three times with PBS by use of a microtiter plate washer (Ultrawash Plus, Dynex Technologies, Chantilly, Va.). Each well then received 150 μl of an MTT solution (0.5 mg/ml) in serum-free medium. The plates were incubated for 2 h at 37° C., the MTT solution was discarded, 100 μl of DMSO were added to each well, and the plates were shaken at 200 rpm on an orbital shaker for 5 min. The absorbances of the wells were determined at 555 nm with a microtiter plate reader (Spectra Max Plus, Molecular Devices, Sunnyvale, Calif.). The absorbance of reduced MIT was then compared at each inducer and oxidant concentration to that of untreated control cells that received only the vehicle in which sulforaphane (DMSO) and menadione (DMSO or PBS) were dissolved. In each experiment three identical 96-well plates were used and the means of the absorbance values, the standard deviations of these means, and their coefficients of variation were calculated.
(§3) Dose-effect analyses were performed according to the Median Effect Equation, by use of a computer program (Chou, T. C. & Hayball, M. (1996) CalcuSyn for Windows 3.1 and 95: multiple dose effect analyzer and manual for IBM-PC, Biosoft, Cambridge, U.K). The equation: fa/fu=[D/Dm]^m, where fa is the fraction of cells affected by the oxidant, fu is the fraction unaffected (i.e., 1-fa), D is the dose of oxidant required to produce the effect fa, Dm is the concentration of oxidant required to produce a 50% effect, i.e., when fa=fu, and the slope m is a measure of the sigmoidicity of the dose-response curve, and is therefore a measure of cooperativity. The results are analyzed by plotting log(fa/fu) with respect to log D of the oxidant. The computer program provides the slope (m) of the curves, and the goodness of fit (r^2) to linearity.

[2] = tested on: Retina Pigment Epithelium Cell; assay: Photooxidative damage by all-trans-retinal and 365 nm light, protection by sulforaphane (cell survival); conditions: sulforaphane 0.00 μM
Description: There is accumulating evidence that chronic exposure to sunlight plays a role in some degenerative diseases, for instance, age-related macular degeneration (AMD). We have, therefore, carried out an experiment of protection of human RPE cells against photooxidative damage mediated by all-trans-retinal, which exists in human retina and is a critical component of the visual cycle.
as §2
To examine the protective effect of sulforaphane against photooxidative damage mediated by all-trans-retinal and light exposure, the cells were treated with 0-100 μM of all-trans-retinal for 2 hours and light exposure at 365 nm for 20 min after incubation with 0-5 μM of sulforaphane for 24 hours.

[3] = tested on: HaCaT cells; assay: tert-Butyl hydroperoxide cytotoxicity (MTT, median effect analysis) and protection by sulforaphane
Description: Mouse L1210 leukemia cells, a gift from Dr. Joseph G. Cory, East Carolina State University, Greenville, N.C., were grown in RPMI 1640 medium supplemented with 10% horse serum. All cultures were incubated in a humidified atmosphere of 5% CO2 at 37° C. Media and sera were obtained from Life Technologies (Rockville, Md.).
as §1, §2, §3

[4] = ARPE-19, mean over sulforaphane 0-2.5 μM

With `CCCCCC(O)C=CC=O` (centres unmarked) [4-hydroxynonenal, 4-Hydroxynon-2-enal, reference compound] the “m (slope of median effect plot) for 4-hydroxynonenal” value ([1]; ARPE-19, 4-hydroxynonenal 4 h, sulforaphane 0.00 μM) was 2.85, the “mean slope m for 4-hydroxynonenal” value [1, 4] was 2.66 and the EC50 ([1]; ARPE-19, 4 h, ARPE-19, 4-hydroxynonenal 4 h, sulforaphane 0.00 μM, read-out: Dm (median effect concentration) of 4-hydroxynonenal) was 8.7 µM.

With `CC1=C(/C=C/C(C)=C/C=C/C(C)=C/C=O)C(C)(C)CCC1` [All-trans-Retinal, all-trans-retinal, reference compound] the Survival ([2]; 365 nm light, all-trans-retinal 12.5 μM) was 83.6%, the Survival ([2]; 365 nm light, all-trans-retinal 25 μM) was 41.9% and the Survival ([2]; 365 nm light, all-trans-retinal 50 μM) was 9.4%. For the same compound, the Survival ([2]; 365 nm light, all-trans-retinal 100 μM) was 3.1%, the Survival ([2]; in dark, all-trans-retinal 12.5 μM) was 96.3% and the Survival ([2]; in dark, all-trans-retinal 25 μM) was 97.6%. For the same compound, the Survival ([2]; in dark, all-trans-retinal 50 μM) was 96.8% and the Survival ([2]; in dark, all-trans-retinal 100 μM) was 75.0%.

`O=NOO` [Peroxynitrite, reference compound] was tested, and the “mean slope m for peroxynitrite” value [1, 4] was 6.29, the “m (slope of median effect plot) for peroxynitrite” value ([1]; ARPE-19, peroxynitrite (from SIN-1) 2 h, sulforaphane 0.00 μM) was 6.07 and the EC50 ([1]; ARPE-19, 2 h, ARPE-19, peroxynitrite (from SIN-1) 2 h, sulforaphane 0.00 μM, read-out: Dm (median effect concentration) of peroxynitrite) was 1440 µM.

`CC(C)(C)OO` [tert-Butyl hydroperoxide, Tert-Butyl hydroperoxide, reference compound] was tested, and the “mean slope m for tert-butyl hydroperoxide” value [1, 4] was 1.93, the “m (slope of median effect plot) for tert-butyl hydroperoxide” value ([1]; ARPE-19, tert-butyl hydroperoxide 16 h, sulforaphane 0.00 μM) was 2.52 and the EC50 ([1]; ARPE-19, 16 h, read-out: Dm (median effect concentration) of tert-butyl hydroperoxide) was 95.8 µM. The EC50 ([3]; Homo sapiens, 8 h, read-out: Dm (median effect concentration) of tert-butyl hydroperoxide) was 63.5 µM, the “slopes of the median effect plots for tert-butyl hydroperoxide” value ([3]; over the sulforaphane concentrations) was 0.8-1.2 and the “m (slope of median effect plot) for tert-butyl hydroperoxide” value ([3]; tert-butyl hydroperoxide 8 h, sulforaphane 0.00 μM) was 0.899.
